# The source made the active and inactive calls. The calls are words filed in the database; no cut-off is given here.
# Tests used:
# Escherichia coli [1] = experiment: Antibacterial activity against Escherichia coli ATCC 8739 incubated for 24 hrs by broth microdilution method; format: functional
# Staphylococcus aureus [2] = experiment: Antibacterial activity against Staphylococcus aureus ATCC 6538P incubated for 24 hrs by broth microdilution method; format: functional
# Staphylococcus aureus [3] = experiment: Antibacterial activity against methicillin resistant Staphylococcus aureus ATCC 33591 incubated for 24 hrs by broth dilution method; format: functional
# [4] = Hemolytic activity in rabbit RBC assessed as hemolysis rate at 10 times MIC incubated for 3 hrs by ultraviolet spectrophotometry analysis relative to control; format: toxicity, cell-based, Oryctolagus cuniculus, Erythrocyte; settings: rabbit red blood cells (erythrocytes), read-out: Activity
# Escherichia coli [5] = experiment: Ratio of MBC to MIC against Escherichia coli ATCC 8739 measured after 24 hrs; format: functional
# Staphylococcus aureus [6] = experiment: Ratio MBC to MIC against Staphylococcus aureus ATCC 6538P measured after 24 hrs; format: functional
# Staphylococcus aureus [7] = experiment: Potency index, ratio of norfloxacin MIC to test compound MIC for antibacterial activity against methicillin resistant Staphylococcus aureus ATCC 33591 incubated for 24 hrs by broth dilution method; format: functional
# Staphylococcus aureus [8] = experiment: Ratio MBC to MIC methicillin resistant Staphylococcus aureus ATCC 33591 measured after 24 hrs; format: functional
# Staphylococcus aureus [9] = experiment: Bactericidal activity against methicillin resistant Staphylococcus aureus ATCC 33591 at 1 to 4 times MIC incubated for 24 hrs by time kill assay; format: functional, organism-based
# Staphylococcus aureus [10] = experiment: Induction of resistance development in methicillin resistant Staphylococcus aureus ATCC 33591 assessed as fold increase in MIC incubated for 24 hrs and measured at 10th generation relative to first generation; format: functional
# Staphylococcus aureus [11] = experiment: Inhibition of biofilm formation in methicillin resistant Staphylococcus aureus ATCC 33591 at 0.25 times MIC incubated for 24 hrs by crystal violet staining based assay relative to control; format: functional
# Staphylococcus aureus [12] = experiment: Inhibition of biofilm formation in methicillin resistant Staphylococcus aureus ATCC 33591 at 0.5 times MIC incubated for 24 hrs by crystal violet staining based assay relative to control; format: functional
# Staphylococcus aureus [13] = experiment: Anti-biofilm activity against methicillin resistant Staphylococcus aureus ATCC 33591 assessed as biofilm eradication incubated for 24 hrs by crystal violet staining based assay; format: functional, organism-based
# Staphylococcus aureus [14] = experiment: Anti-biofilm activity against methicillin resistant Staphylococcus aureus ATCC 33591 assessed as biofilm eradication at MIC incubated for 24 hrs by crystal violet staining based assay relative to control; format: functional
# [15] = Hemolytic activity in rabbit RBC assessed as hemolysis rate at 2 times MIC incubated for 3 hrs by ultraviolet spectrophotometry analysis relative to control; format: toxicity, cell-based, Oryctolagus cuniculus, Erythrocyte; settings: rabbit red blood cells (erythrocytes), read-out: Activity
# [16] = Hemolytic activity in rabbit RBC assessed as hemolysis rate at 4 times MIC incubated for 3 hrs by ultraviolet spectrophotometry analysis relative to control; format: toxicity, cell-based, Oryctolagus cuniculus, Erythrocyte; settings: rabbit red blood cells (erythrocytes), read-out: Activity
# [17] = Hemolytic activity in rabbit RBC assessed as hemolysis rate at 6 times MIC incubated for 3 hrs by ultraviolet spectrophotometry analysis relative to control; format: toxicity, cell-based, Oryctolagus cuniculus, Erythrocyte; settings: rabbit red blood cells (erythrocytes), read-out: Activity
# [18] = Hemolytic activity in rabbit RBC assessed as hemolysis rate at 8 times MIC incubated for 3 hrs by ultraviolet spectrophotometry analysis relative to control; format: toxicity, cell-based, Oryctolagus cuniculus, Erythrocyte; settings: rabbit red blood cells (erythrocytes), read-out: Activity
# [19] = (§1) Inhibition of Escherichia coli ATCC 8739 UPPS using farnesyl pyrophosphate and isopentenyl pyrophosphate as a substrates preincubated for 30 min followed by EcPPA addition and measured after 30 min by malachite green dye based absorbance analysis
# Escherichia coli [20] = experiment: as §1; settings: time 60.0 min
# Escherichia coli [21] = experiment: Noncompetitive inhibition of Escherichia coli ATCC 8739 UPPS using varying concentrations of farnesyl pyrophosphate as substrate assessed as decrease in Vmax with constant Km at 0 to 64 microg/mL incubated for 30 mins by Lineweaver-Burk plot analysis; settings: dose 0-64 µg/ml
# Staphylococcus aureus [22] = experiment: Bactericidal activity against methicillin resistant Staphylococcus aureus ATCC 33591 at 1 times MIC measured after 4 hrs by time kill assay; format: functional
# Staphylococcus aureus [23] = experiment: Bactericidal activity against methicillin resistant Staphylococcus aureus ATCC 33591 at 2 to 4 times MIC measured after 2 hrs by time kill assay; format: functional
smiles,measurement,setting,value
C/C(=N\NC(=N)N)c1sc(N/N=C/c2ccc(-n3cncn3)cc2)nc1C,MIC,Escherichia coli [1],> 128 µg/mL
same,MIC,Staphylococcus aureus [2],> 128 µg/mL
same,MIC,Staphylococcus aureus [3],> 128 µg/mL
same,"hemolysis at 3 h, 10 x MIC",[4],< 5%
C/C(=N\NC(=N)N)c1sc(N/N=C/C=C/c2c(F)cccc2F)nc1C,MIC,Escherichia coli [1],32 µg/mL
same,Ratio,Escherichia coli [5],1
same,MIC,Staphylococcus aureus [2],128 µg/mL
same,Ratio,Staphylococcus aureus [6],1
same,MIC,Staphylococcus aureus [3],32 µg/mL
same,"hemolysis at 3 h, 10 x MIC",[4],< 5%
C/C(=N\NC(=N)N)c1sc(N/N=C/c2cc(F)ccc2F)nc1C,MIC,Escherichia coli [1],16 µg/mL
same,Ratio,Escherichia coli [5],1
same,MIC,Staphylococcus aureus [2],8 µg/mL
same,Ratio,Staphylococcus aureus [6],1
same,MIC,Staphylococcus aureus [3],8 µg/mL
same,Ratio,Staphylococcus aureus [7],8
same,"hemolysis at 3 h, 10 x MIC",[4],< 5%
C/C(=N\NC(=N)N)c1sc(N/N=C/c2ccc(-c3ccc(F)cc3)cc2)nc1C,MIC,Escherichia coli [1],16 µg/mL
same,Ratio,Escherichia coli [5],4
same,MIC,Staphylococcus aureus [2],4 µg/mL
same,Ratio,Staphylococcus aureus [6],1
same,MIC,Staphylococcus aureus [3],4 µg/mL
same,Ratio,Staphylococcus aureus [7],16
same,"hemolysis at 3 h, 10 x MIC",[4],< 5%
C/C(=N\NC(=N)N)c1sc(N/N=C/c2cccc(O)c2)nc1C,MIC,Escherichia coli [1],32 µg/mL
same,Ratio,Escherichia coli [5],1
same,MIC,Staphylococcus aureus [2],8 µg/mL
same,Ratio,Staphylococcus aureus [6],2
same,MIC,Staphylococcus aureus [3],32 µg/mL
same,Ratio,Staphylococcus aureus [8],1
same,"hemolysis at 3 h, 10 x MIC",[4],< 5%
C/C(=N\NC(=N)N)c1sc(N/N=C/c2ccc(O)cc2)nc1C,MIC,Escherichia coli [1],64 µg/mL
same,Ratio,Escherichia coli [5],1
same,MIC,Staphylococcus aureus [2],32 µg/mL
same,Ratio,Staphylococcus aureus [6],2
same,MIC,Staphylococcus aureus [3],128 µg/mL
same,Ratio,Staphylococcus aureus [8],>1
same,"hemolysis at 3 h, 10 x MIC",[4],< 5%
C/C(=N\NC(=N)N)c1sc(N/N=C/c2cncs2)nc1C,MIC,Escherichia coli [1],64 µg/mL
same,Ratio,Escherichia coli [5],2
same,MIC,Staphylococcus aureus [2],64 µg/mL
same,Ratio,Staphylococcus aureus [6],>2
same,MIC,Staphylococcus aureus [3],64 µg/mL
same,Ratio,Staphylococcus aureus [8],2
same,"hemolysis at 3 h, 10 x MIC",[4],< 5%
C/C(=N\NC(=N)N)c1sc(N/N=C/c2cccc(F)c2F)nc1C,MIC,Escherichia coli [1],64 µg/mL
same,Ratio,Escherichia coli [5],2
same,MIC,Staphylococcus aureus [2],16 µg/mL
same,Ratio,Staphylococcus aureus [6],2
same,MIC,Staphylococcus aureus [3],16 µg/mL
same,Ratio,Staphylococcus aureus [8],1
same,"hemolysis at 3 h, 10 x MIC",[4],< 5%
C/C(=N\NC(=N)N)c1sc(N/N=C/c2ccc(-c3ccc(C(F)(F)F)cc3)cc2)nc1C,MIC,Escherichia coli [1],8 µg/mL
same,Ratio,Escherichia coli [5],1
same,MIC,Staphylococcus aureus [2],16 µg/mL
same,Ratio,Staphylococcus aureus [6],1
same,MIC,Staphylococcus aureus [3],8 µg/mL
same,Ratio,Staphylococcus aureus [7],8
same,"hemolysis at 3 h, 10 x MIC",[4],< 5%
C/C(=N\NC(=N)N)c1sc(N/N=C/c2cc(O)cc(O)c2)nc1C,MIC,Escherichia coli [1],32 µg/mL
same,Ratio,Escherichia coli [5],1
same,MIC,Staphylococcus aureus [2],32 µg/mL
same,Ratio,Staphylococcus aureus [6],1
same,MIC,Staphylococcus aureus [3],64 µg/mL
same,"hemolysis at 3 h, 10 x MIC",[4],< 5%
C/C(=N\NC(=N)N)c1sc(N/N=C/c2ccccc2O)nc1C,MIC,Escherichia coli [1],64 µg/mL
same,Ratio,Escherichia coli [5],1
same,MIC,Staphylococcus aureus [2],32 µg/mL
same,Ratio,Staphylococcus aureus [6],1
same,MIC,Staphylococcus aureus [3],64 µg/mL
same,"hemolysis at 3 h, 10 x MIC",[4],< 5%
CCn1cc(C(=O)O)c(=O)c2cc(F)c(N3CCNCC3)cc21 [NORFLOXACIN],MIC,Escherichia coli [1],0.12 µg/mL
same,Ratio,Escherichia coli [5],>8
same,MIC,Staphylococcus aureus [2],0.25 µg/mL
same,Ratio,Staphylococcus aureus [6],1
same,MIC,Staphylococcus aureus [3],64 µg/mL
same,Ratio,Staphylococcus aureus [8],>2
same,Activity,Staphylococcus aureus [9],inactive
same,fold change (FC),Staphylococcus aureus [10],4
C/C(=N\NC(=N)N)c1sc(N/N=C/c2ccccc2F)nc1C,MIC,Escherichia coli [1],16 µg/mL
same,Ratio,Escherichia coli [5],1
same,MIC,Staphylococcus aureus [2],16 µg/mL
same,Ratio,Staphylococcus aureus [6],1
same,MIC,Staphylococcus aureus [3],8 µg/mL
same,Ratio,Staphylococcus aureus [7],8
same,"hemolysis at 3 h, 10 x MIC",[4],< 5%
C/C(=N\NC(=N)N)c1sc(N/N=C/c2ccc(N3CCCC3)cc2)nc1C,MIC,Escherichia coli [1],32 µg/mL
same,Ratio,Escherichia coli [5],4
same,MIC,Staphylococcus aureus [2],32 µg/mL
same,Ratio,Staphylococcus aureus [6],1
same,MIC,Staphylococcus aureus [3],32 µg/mL
same,"hemolysis at 3 h, 10 x MIC",[4],< 5%
C/C(=N\NC(=N)N)c1sc(N/N=C/c2ccc(-c3cccs3)s2)nc1C,MIC,Escherichia coli [1],8 µg/mL
same,Ratio,Escherichia coli [5],1
same,MIC,Staphylococcus aureus [2],2 µg/mL
same,Ratio,Staphylococcus aureus [6],2
same,MIC,Staphylococcus aureus [3],8 µg/mL
same,Ratio,Staphylococcus aureus [8],1
same,Ratio,Staphylococcus aureus [7],8
same,fold change (FC),Staphylococcus aureus [10],2
same,inhibition (INH),Staphylococcus aureus [11],44%
same,inhibition (INH),Staphylococcus aureus [12],59%
same,Activity,Staphylococcus aureus [13],Dose-Dependent Effect
same,Activity,Staphylococcus aureus [14],70%
same,"hemolysis at 3 h, 2 x MIC",[15],2.6%
same,"hemolysis at 3 h, 4 x MIC",[16],2.1%
same,"hemolysis at 3 h, 6 x MIC",[17],1.7%
same,"hemolysis at 3 h, 8 x MIC",[18],1.3%
same,"hemolysis at 3 h, 10 x MIC",[4],3.3%
same,IC50,[19],145 µM
same,inhibition,Escherichia coli [20],Dose-Dependent Effect
same,inhibition,Escherichia coli [21],Dose-Dependent Effect
same,Activity,Staphylococcus aureus [22],100%
same,Activity,Staphylococcus aureus [23],100%
COc1ccc(-c2ccc(/C=N/Nc3nc(C)c(/C(C)=N/NC(=N)N)s3)cc2)cc1,MIC,Escherichia coli [1],128 µg/mL
same,Ratio,Escherichia coli [5],>1
same,MIC,Staphylococcus aureus [2],32 µg/mL
same,Ratio,Staphylococcus aureus [6],>1
same,MIC,Staphylococcus aureus [3],32 µg/mL
same,Ratio,Staphylococcus aureus [8],1
same,"hemolysis at 3 h, 10 x MIC",[4],< 5%

# From ChEMBL document CHEMBL5335839, “Synthesis and structure-activity relationship of novel thiazole aminoguanidines against MRSA and Escherichia coli” (RSC Med Chem, 2024)
